Counter-ions that a name gives are not always drawn. Like-named read-outs stand apart in the source and are kept apart here.
Biological target: T1, Human IP6K1 (Homo sapiens, UniProt Q92551)
T1 construct: GST (N, cleaved yes); made in house; host or cells: C43 E. coli, pGEX-6P-2
Experiment: IP6K1 high-throughput screen of the Sigma LOPAC (ADP-Glo Max, single point);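 note: final compound concentration 10µM in 5% DMSO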
Type: biochemical

[1] = LOPAC single-point screen, ADP-Glo Max raw signal per well
[2] = LOPAC single-point screen, Z-score against plate average and StDev
[3] = LOPAC single-point screen, ADP-Glo Max luminescence raw signal per well
[4] = LOPAC single-point screen, Z-score from plate average and StDev
[5] = LOPAC single-point screen, Z-score relative to plate average and StDev
[6] = Sigma LOPAC single-point screen, ADP-Glo Max raw signal per well
[7] = Sigma LOPAC single-point screen, Z-score from plate average and StDev
[8] = LOPAC single-point screen, Z-score from raw signal with plate average and StDev

T1 sequence (Q92551 whole entry): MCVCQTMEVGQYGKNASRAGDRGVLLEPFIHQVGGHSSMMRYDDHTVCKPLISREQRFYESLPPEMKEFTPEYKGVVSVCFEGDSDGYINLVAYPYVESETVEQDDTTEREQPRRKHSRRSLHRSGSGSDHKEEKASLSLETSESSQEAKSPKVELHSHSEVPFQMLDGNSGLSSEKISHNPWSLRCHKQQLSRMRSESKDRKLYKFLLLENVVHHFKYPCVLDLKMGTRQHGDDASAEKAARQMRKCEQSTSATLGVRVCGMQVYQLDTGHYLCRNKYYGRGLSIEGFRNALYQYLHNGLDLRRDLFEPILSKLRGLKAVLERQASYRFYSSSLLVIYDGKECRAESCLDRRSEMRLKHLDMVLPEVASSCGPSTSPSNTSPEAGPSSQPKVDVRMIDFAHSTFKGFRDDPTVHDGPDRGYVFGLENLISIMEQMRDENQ

## CC(=O)O[C@H]1C[C@@]2(C)[C@@H](C[C@@H](O)[C@H]3[C@@]4(C)CC[C@@H](O)[C@@H](C)[C@@H]4CC[C@@]32C)/C1=C(\CCC=C(C)C)C(=O)[O-].[Na+] [Fusidic acid sodium]
[1]
  Raw Signal: 56091
[2]
  Z-score: 0.1876

## CC(C)N(CCC(=O)c1ccc2ccccc2c1)Cc1ccccc1.Cl [ZM 39923 hydrochloride]
[1]
  Raw Signal: 54461
[2]
  Z-score: 0.01134

## Oc1ccc2c3c1O[C@H]1[C@@H](O)CC[C@@]4(O)[C@@H](C2)N(CC2CCC2)CC[C@]314 [Nalbuphine hydrochloride]
  Raw Signal: 53889
  Z-score: -0.08477

## C[N+]1(C)C2CCC1CC(OC(=O)c1c[nH]c3ccccc13)C2.[I-] (centres unmarked)
[3]
  Raw Signal: 66909
[4]
  Z-score: 2.115

## Br.CN1CCc2cc(O)cc3c2[C@H]1Cc1ccc(O)c(O)c1-3
[3]
  Raw Signal: 51557
[5]
  Z-score: -0.7332

## Cc1scc2c1N(C(=O)CN1CCN(C)CC1)c1ccccc1NC2=O [Telenzepine dihydrochloride]
[6]
  Raw Signal: 58050
[7]
  Z-score: 0.3937

## CN(C)CCOC(=O)COc1ccc(Cl)cc1 [Centrophenoxine hydrochloride]
[3]
  Raw Signal: 69002
[4]
  Z-score: 1.953

## CCn1c(=O)[nH]c2cc(Cl)c(Cl)cc21 [DCEBIO]
[3]
  Raw Signal: 52025
[5]
  Z-score: -0.6381

## CC(N)(Cc1ccc(O)c(O)c1)C(=O)O (racemic)
[3]
  Raw Signal: 41540
[5]
  Z-score: -2.16

## N[C@@H](Cn1ccc(=O)[nH]c1=O)C(=O)O [S(-)-Willardiine]
[1]
  Raw Signal: 55281
[8]
  Z-score: -0.1443

## Cl.N[C@@H](CCC(=O)O)C(=O)O [L-Glutamic acid hydrochloride]
[1]
  Raw Signal: 55889
[2]
  Z-score: 0.1466

## CN1[C@@H]2CC[C@H]1C[C@@H](OC(=O)c1cc(Cl)cc(Cl)c1)C2 [3-Tropanyl-3,5-dichlorobenzoate]
[1]
  Raw Signal: 53877
[8]
  Z-score: -0.4171

## CCC(NC(C)C)C(O)c1ccc(O)c(O)c1.CS(=O)(=O)O (centres unmarked) [Isotharine mesylate]
[1]
  Raw Signal: 54100
[2]
  Z-score: -0.04932

## NS(=O)(=O)c1cccc2c1c([N+](=O)[O-])cc1nc([O-])c([O-])nc12.[Na+].[Na+] [NBQX disodium]
[1]
  Raw Signal: 52080
[8]
  Z-score: -0.3887

## Br.CCCN1CCC2c3cc(O)ccc3CCC21 (racemic) [cis-(±)-8-OH-PBZI hydrobromide]
[1]
  Raw Signal: 53901
[2]
  Z-score: -0.08275

## O=C(OCCN1CCCCC1)c1c[nH]c2ccccc12 [SB 203186]
[3]
  Raw Signal: 49486
[5]
  Z-score: -1.154

## CN1C(C(=O)Nc2ccccn2)=C(O)c2ccccc2S1(=O)=O [Piroxicam]
[6]
  Raw Signal: 59564
[7]
  Z-score: 0.8688

## Cc1c(CC(C)(C)C(=O)O)n(Cc2ccc(Cl)cc2)c2ccc(F)cc12 [L-655,240]
[3]
  Raw Signal: 51424
[5]
  Z-score: -0.499

## NCC(O)(CS(=O)(=O)O)c1ccc(Cl)cc1 (centres unmarked) [2-Hydroxysaclofen]
[6]
  Raw Signal: 61124
[7]
  Z-score: 0.5655

## C=C(C)[C@H]1CN[C@H](C(=O)O)[C@H]1CC(=O)O [Kainic acid]
  Raw Signal: 54485
  Z-score: 0.01537

## Cc1nc(N=Nc2ccc(C(=O)O)cc2)c(COP(=O)(O)O)c(C=O)c1O [MRS 2159]
[3]
  Raw Signal: 51283
[5]
  Z-score: -0.5226

## CC(Cc1ccc(O)cc1)NCC(O)c1cc(O)cc(O)c1 (centres unmarked) [Fenoterol hydrobromide]
[1]
  Raw Signal: 56195
[2]
  Z-score: 0.2088

## CP(=O)(O)C1=CCNCC1 [TPMPA]
[6]
  Raw Signal: 59668
[7]
  Z-score: 0.708

## CCn1cc(C(=O)O)c(=O)c2cc3c(cc21)OCO3 [Oxolinic acid]
[6]
  Raw Signal: 60270
[7]
  Z-score: 0.9874

## COCCc1ccc(OCC(O)CNC(C)C)cc1.O=C(O)C(O)C(O)C(=O)O (racemic) [(±)-Metoprolol (+)-tartrate]
[6]
  Raw Signal: 61286
[7]
  Z-score: 1.158

## O=C1O/C(=C/Br)CCC1c1cccc2ccccc12 (centres unmarked) [Bromoenol lactone]
[3]
  Raw Signal: 52508
[5]
  Z-score: -0.952

## CC(C)(C)c1o[nH]c(=O)c1CC(N)C(=O)O (centres unmarked) [ATPA]
[1]
  Raw Signal: 57342
[8]
  Z-score: -0.1006

## CN1CCC(c2c[nH]c3ccc(O)cc23)CC1.O=C(O)/C=C\C(=O)O [BRL 54443 maleate]
[3]
  Raw Signal: 53701
[5]
  Z-score: -0.7419

## CC(=O)OCC1=C(C(=O)O)N2C(=O)[C@@H](NC(=O)CSc3ccncc3)[C@H]2SC1 [Cephapirin sodium]
[3]
  Raw Signal: 53491
[5]
  Z-score: -0.7789

## N=C(N)NC(=N)Nc1ccccc1 [1-Phenylbiguanide]
[3]
  Raw Signal: 52325
[5]
  Z-score: -0.7186

## CCCCCN(CCCCC)C(=O)C(CCC(=O)O)NC(=O)c1ccc(Cl)c(Cl)c1 (centres unmarked) [Lorglumide sodium]
[2]
  Z-score: 0.04041

## Cl.N=C(N)NC(=N)Nc1cccc(Cl)c1
[3]
  Raw Signal: 49824
[5]
  Z-score: -1.085

## NC(=Nc1ccccc1)NC(=O)c1nc(Cl)c(N)nc1N [Phenamil methanesulfonate]
[3]
  Raw Signal: 52022
[5]
  Z-score: -0.7775

## CCn1cc(C(=O)[O-])c(=O)c2ccc(C)nc21.[Na+] [Nalidixic acid sodium]
[3]
  Raw Signal: 49665
[5]
  Z-score: -0.7945

## CC(=O)N1CCN(c2ccc(OCC3COC(Cn4ccnc4)(c4ccc(Cl)cc4Cl)O3)cc2)CC1 (centres unmarked) [Ketoconazole]
[3]
  Raw Signal: 49591
[5]
  Z-score: -0.8069

## CCCn1c(=O)[nH]c(=O)c2nc[nH]c21 [3-n-Propylxanthine]
[6]
  Raw Signal: 57454
[7]
  Z-score: 0.5142

## CCOC(=O)c1ncn2c1CN(C)C(=O)c1cc(F)ccc1-2 [Flumazenil]
[3]
  Raw Signal: 52634
[5]
  Z-score: -0.5144

## N=C(N)N/N=C/c1c(Cl)cccc1Cl [Guanabenz acetate]
[1]
  Raw Signal: 54722
[2]
  Z-score: -0.09038

## O=C(O)CCC/C=C\C[C@@H]1[C@@H](/C=C/[C@H](O)C2Cc3ccccc3C2)[C@@H](F)C[C@@H]1O [AL-8810]
[3]
  Raw Signal: 53863
[5]
  Z-score: -0.7133

## CC(N/C(=N\C#N)Nc1ccncc1)C(C)(C)C (centres unmarked) [Pinacidil]
[1]
  Raw Signal: 55394
[8]
  Z-score: -0.1224

## CC[C@@H]1Cc2cc(O)ccc2C2=C1c1ccc(O)cc1C[C@H]2CC
[3]
  Raw Signal: 51869
[5]
  Z-score: -0.6698

## O=C(O)CP(=O)(O)O [Phosphonoacetic acid]
[1]
  Raw Signal: 54653
[8]
  Z-score: -0.2663

## O=C(O)C=Cc1c[nH]cn1 [4-Imidazoleacrylic acid]
[1]
  Raw Signal: 54766
[8]
  Z-score: -0.2444

## COc1cc(CC(C)N)c(OC)cc1I.Cl (racemic) [(±)-DOI hydrochloride]
[3]
  Raw Signal: 52125
[5]
  Z-score: -0.6178

## O=C(O)[C@@H]1[C@H](C(=O)O)[C@H]2CC[C@@H]1O2 [Endothall]
[6]
  Raw Signal: 58370
[7]
  Z-score: 0.6505

## CC(C)Oc1cccnc1N(C)C1CCN(Cc2ccccc2)CC1.O=C(O)/C=C\C(=O)O [U-101958 maleate]
[3]
  Raw Signal: 65094
[4]
  Z-score: 1.762

## N=C(N)c1ccccc1 [Benzamidine hydrochloride]
[1]
  Raw Signal: 57181
[8]
  Z-score: -0.1289

## C=C(C)[C@H]1Cc2c(ccc3c2O[C@@H]2COc4cc(OC)c(OC)cc4[C@@H]2C3=O)O1 [Rotenone]
[6]
  Raw Signal: 59768
[7]
  Z-score: 0.7274

## COc1ccccc1NC(=O)Nc1nc(-c2cccnc2)nc2ccccc12 [VUF 5574]
[6]
  Raw Signal: 58097
[7]
  Z-score: 0.4028

## COC(=O)C1=C(C)NC(C)=C(C(=O)OCCN(C)Cc2ccccc2)C1c1cccc([N+](=O)[O-])c1 (centres unmarked) [Nicardipine hydrochloride]
[3]
  Raw Signal: 66364
[4]
  Z-score: 2.011

## CCN(CC)CCCC(C)Nc1c2ccc(Cl)cc2nc2ccc(OC)cc12 (centres unmarked) [Quinacrine dihydrochloride]
[6]
  Raw Signal: 60550
[7]
  Z-score: 0.8794

## CCN(CC)CCOC(=O)c1ccc(N)cc1 [Procaine hydrochloride]
[6]
  Raw Signal: 61379
[7]
  Z-score: 1.04

## CC1CCN=C(N)S1.Cl (racemic) [(±)-AMT hydrochloride]
[6]
  Raw Signal: 65458
[7]
  Z-score: 1.329

## COC(=O)[C@H](NC(=O)c1cc(-c2ccccc2)nc2ccccc12)c1ccccc1 [SB 218795]
[6]
  Raw Signal: 57840
[7]
  Z-score: 0.5429

## CC[N+](CC)(CC)CCOc1ccc(/C=C/c2ccccc2)cc1 [MG 624]
[6]
  Raw Signal: 57360
[7]
  Z-score: 0.4984

## CN(C)CCCN1c2ccccc2Sc2ccc(C(F)(F)F)cc21 [Triflupromazine hydrochloride]
[1]
  Raw Signal: 54007
[8]
  Z-score: -0.3918

## CC/C(=C(\c1ccccc1)c1ccc(OCCN(C)C)cc1)c1ccccc1 [Tamoxifen citrate]
[6]
  Raw Signal: 60879
[7]
  Z-score: 0.9433

## CC(C)NCC(O)COc1ccc(CC(N)=O)cc1 (racemic) [(±)-Atenolol]
[1]
  Raw Signal: 56468
[8]
  Z-score: -0.2545

## CC(C)C1C2CCC(C2)C1N.Cl (racemic) [AGN 192403 hydrochloride]
[3]
  Raw Signal: 53820
[5]
  Z-score: -0.7209

## NC1(C(=O)O)CCc2cc(C(=O)O)ccc21 (centres unmarked) [AIDA]
[3]
  Raw Signal: 52578
[5]
  Z-score: -0.9397

## COC[C@H]1OC(=O)c2coc3c2[C@@]1(C)C1=C(C3=O)[C@@H]2CCC(=O)[C@@]2(C)C[C@H]1OC(C)=O [Wortmannin from Penicillium funiculosum]
[3]
  Raw Signal: 53582
[5]
  Z-score: -0.4744

## Cn1cnc([N+](=O)[O-])c1Sc1ncnc2nc[nH]c12 [Azathioprine]
[3]
  Raw Signal: 52333
[5]
  Z-score: -0.9828

## CCN(CC)CCOCCOC(=O)C1(c2ccccc2)CCCC1 [Carbetapentane citrate]
[3]
  Raw Signal: 67390
[4]
  Z-score: 1.669

Reference: publication PMC5706701, “Development of a homogenous high-throughput assay for inositol hexakisphosphate kinase 1 activity” (PLoS ONE, 2017)
